Data as given in patent publication EP0908457B1, “3-(1,2-benzisothiazol- and isoxazol-5-Y1)-2,4(1H,3H)-pyrimidinedione or thione and 3-(1,2-benzisothiazol- and isoxazol-5-y1)-4(3H)-pyrimidinone or thione herbicidal agents” (BASF AKTIENGESELLSCHAFT, priority 1997, dated 1999).

Assays:
[1] = test system: Monochoria vaginalis, Presl.; assay: Preemergence weed control under flooded paddy conditions, MOOVA (Monochoria); type: in vivo; conditions: preemergence weeds, flooded paddy, herbicidal effect rating 0-9, three to four weeks after treatment
[2] = test system: Oryza sativa, (L.) Tebonnet; assay: Rice tolerance to post-transplant applications under flooded paddy conditions (Example 188), ORYSAT (Rice, Tebonnet); conditions: rated three to four weeks after treatment
[3] = test system: Sagittaria pygmaea, L.; assay: Preemergence weed control under flooded paddy conditions, SAGPY (Arrowhead (Pygmaea)); type: in vivo; conditions: preemergence weeds, flooded paddy, herbicidal effect rating 0-9, three to four weeks after treatment
[4] = test system: Echinochloa oryzoides (Ard.) Fritsch.; assay: Preemergence weed control under flooded paddy conditions, ECHORC (Watergrass (Calif.)); type: in vivo; conditions: preemergence weeds, flooded paddy, herbicidal effect rating 0-9, three to four weeks after treatment
[5] = test system: Oryza sativa, (L.) Tebonnet; assay: Rice tolerance to post-transplant applications under flooded paddy conditions (Example 187), ORYSAT (Rice, Tebonnet); conditions: herbicidal effect rating 0-9, three to four weeks after treatment
[6] = test system: Sagittaria pygmaea, L.; assay: Postemergence weed control under flooded paddy conditions, SAGPY (Arrowhead (Pygmaea)); type: in vivo; conditions: rated three to four weeks after treatment
[7] = test system: Cyperus serotinus, Rottb.; assay: Preemergence weed control under flooded paddy conditions, CYPSE (Flatsedge); type: in vivo; conditions: preemergence weeds, herbicidal effect rating 0-9, three to four weeks after treatment
[8] = test system: Cyperus iria; assay: Preemergence weed control under flooded paddy conditions, CYPIR (Rice Flatsedge); type: in vivo; conditions: preemergence weeds, flooded paddy, herbicidal effect rating 0-9, three to four weeks after treatment
[9] = test system: Echinochloa oryzoides (Ard.) Fritsch.; assay: Postemergence weed control under flooded paddy conditions, ECHORC (Watergrass (Calif.)); type: in vivo; conditions: rated three to four weeks after treatment
[10] = test system: Cyperus iria; assay: Postemergence weed control under flooded paddy conditions, CYPIR (Rice Flatsedge); type: in vivo; conditions: rated three to four weeks after treatment
[11] = test system: Cyperus serotinus, Rottb.; assay: Postemergence weed control under flooded paddy conditions, CYPSE (Flatsedge); type: in vivo; conditions: rated three to four weeks after treatment
[12] = test system: Monochoria vaginalis, Presl.; assay: Postemergence weed control under flooded paddy conditions, MOOVA (Monochoria); type: in vivo; conditions: rated three to four weeks after treatment

Cn1c(C(F)(F)F)cc(=O)n(-c2ccc3snc(C(=O)C(C)(C)C)c3c2)c1=O [Example 432, 2,4(1H,3H)-Pyrimidinedione, 1-methyl-3-(3-pivaloyl-1,2-benzisothiazol-5-yl)-6-(trifluoromethyl)-]
MOOVA ([1]; 0.0320 kg/ha): 9.0
MOOVA ([1]; 0.0620 kg/ha): 9.0
MOOVA ([1]; 0.1250 kg/ha): 9.0
MOOVA ([1]; 0.2500 kg/ha): 9.0
herbicidal effect rating, ORYSAT (rice tolerance) ([2]; Rate 0.0320 kg/ha): 4.0
herbicidal effect rating, ORYSAT (rice tolerance) ([2]; Rate 0.0620 kg/ha): 4.0
herbicidal effect rating, ORYSAT (rice tolerance) ([2]; Rate 0.1250 kg/ha): 7.0
herbicidal effect rating, ORYSAT (rice tolerance) ([2]; Rate 0.2500 kg/ha): 7.0
SAGPY ([3]; 0.0320 kg/ha): 0.0
SAGPY ([3]; 0.0620 kg/ha): 3.5
SAGPY ([3]; 0.1250 kg/ha): 7.5
SAGPY ([3]; 0.2500 kg/ha): 8.5
ECHORC ([4]; 0.0320 kg/ha): 9.0
ECHORC ([4]; 0.0620 kg/ha): 9.0
ECHORC ([4]; 0.1250 kg/ha): 9.0
ECHORC ([4]; 0.2500 kg/ha): 9.0
ORYSAT ([5]; 0.0320 kg/ha): 6.0
ORYSAT ([5]; 0.0620 kg/ha): 6.0
ORYSAT ([5]; 0.1250 kg/ha): 6.5
ORYSAT ([5]; 0.2500 kg/ha): 7.5
herbicidal effect rating, SAGPY ([6]; Rate 0.0320 kg/ha): 0.0
herbicidal effect rating, SAGPY ([6]; Rate 0.0620 kg/ha): 0.0
herbicidal effect rating, SAGPY ([6]; Rate 0.1250 kg/ha): 2.0
herbicidal effect rating, SAGPY ([6]; Rate 0.2500 kg/ha): 4.0
CYPSE ([7]; 0.0320 kg/ha): 0.0
CYPSE ([7]; 0.0620 kg/ha): 3.5
CYPSE ([7]; 0.1250 kg/ha): 6.5
CYPSE ([7]; 0.2500 kg/ha): 9.0
CYPIR ([8]; 0.0320 kg/ha): 8.0
CYPIR ([8]; 0.0620 kg/ha): 9.0
CYPIR ([8]; 0.1250 kg/ha): 9.0
CYPIR ([8]; 0.2500 kg/ha): 9.0
herbicidal effect rating, ECHORC ([9]; Rate 0.0320 kg/ha): 9.0
herbicidal effect rating, ECHORC ([9]; Rate 0.0620 kg/ha): 9.0
herbicidal effect rating, ECHORC ([9]; Rate 0.1250 kg/ha): 9.0
herbicidal effect rating, ECHORC ([9]; Rate 0.2500 kg/ha): 9.0
herbicidal effect rating, CYPIR ([10]; Rate 0.0320 kg/ha): 8.0
herbicidal effect rating, CYPIR ([10]; Rate 0.0620 kg/ha): 8.0
herbicidal effect rating, CYPIR ([10]; Rate 0.1250 kg/ha): 9.0
herbicidal effect rating, CYPIR ([10]; Rate 0.2500 kg/ha): 9.0
herbicidal effect rating, CYPSE ([11]; Rate 0.0320 kg/ha): 0.0
herbicidal effect rating, CYPSE ([11]; Rate 0.0620 kg/ha): 4.0
herbicidal effect rating, CYPSE ([11]; Rate 0.1250 kg/ha): 7.0
herbicidal effect rating, CYPSE ([11]; Rate 0.2500 kg/ha): 9.0
herbicidal effect rating, MOOVA ([12]; Rate 0.0320 kg/ha): 9.0
herbicidal effect rating, MOOVA ([12]; Rate 0.0620 kg/ha): 9.0
herbicidal effect rating, MOOVA ([12]; Rate 0.1250 kg/ha): 9.0
herbicidal effect rating, MOOVA ([12]; Rate 0.2500 kg/ha): 9.0

CCC(C#N)(CC)c1nsc2ccc(-n3c(=O)cc(C(F)(F)F)n(C)c3=O)cc12 [Example 445, 1,2-Benzisothiazole-3-acetonitrile, 5-[3,6-dihydro-3-methyl-2,6-dioxo-4-(trifluoromethyl)-1(2H)-pyrimidinyl]-alpha,alpha-diethyl-]
MOOVA ([1]; 0.0320 kg/ha): 9.0
MOOVA ([1]; 0.0620 kg/ha): 9.0
MOOVA ([1]; 0.1250 kg/ha): 9.0
MOOVA ([1]; 0.2500 kg/ha): 9.0
herbicidal effect rating, ORYSAT (rice tolerance) ([2]; Rate 0.0320 kg/ha): 3.0
herbicidal effect rating, ORYSAT (rice tolerance) ([2]; Rate 0.0620 kg/ha): 6.0
herbicidal effect rating, ORYSAT (rice tolerance) ([2]; Rate 0.1250 kg/ha): 7.0
herbicidal effect rating, ORYSAT (rice tolerance) ([2]; Rate 0.2500 kg/ha): 7.0
SAGPY ([3]; 0.0320 kg/ha): 4.5
SAGPY ([3]; 0.0620 kg/ha): 8.0
SAGPY ([3]; 0.1250 kg/ha): 8.5
SAGPY ([3]; 0.2500 kg/ha): 9.0
ECHORC ([4]; 0.0320 kg/ha): 8.5
ECHORC ([4]; 0.0620 kg/ha): 8.5
ECHORC ([4]; 0.1250 kg/ha): 9.0
ECHORC ([4]; 0.2500 kg/ha): 9.0
ORYSAT ([5]; 0.0320 kg/ha): 5.0
ORYSAT ([5]; 0.0620 kg/ha): 6.5
ORYSAT ([5]; 0.1250 kg/ha): 7.0
ORYSAT ([5]; 0.2500 kg/ha): 8.0
herbicidal effect rating, SAGPY ([6]; Rate 0.0320 kg/ha): 0.0
herbicidal effect rating, SAGPY ([6]; Rate 0.0620 kg/ha): 0.0
herbicidal effect rating, SAGPY ([6]; Rate 0.1250 kg/ha): 4.0
herbicidal effect rating, SAGPY ([6]; Rate 0.2500 kg/ha): 9.0
CYPSE ([7]; 0.0320 kg/ha): 7.5
CYPSE ([7]; 0.0620 kg/ha): 8.5
CYPSE ([7]; 0.1250 kg/ha): 8.0
CYPSE ([7]; 0.2500 kg/ha): 8.5
CYPIR ([8]; 0.0320 kg/ha): 6.5
CYPIR ([8]; 0.0620 kg/ha): 8.0
CYPIR ([8]; 0.1250 kg/ha): 9.0
CYPIR ([8]; 0.2500 kg/ha): 9.0
herbicidal effect rating, ECHORC ([9]; Rate 0.0320 kg/ha): 4.0
herbicidal effect rating, ECHORC ([9]; Rate 0.0620 kg/ha): 7.0
herbicidal effect rating, ECHORC ([9]; Rate 0.1250 kg/ha): 9.0
herbicidal effect rating, ECHORC ([9]; Rate 0.2500 kg/ha): 9.0
herbicidal effect rating, CYPIR ([10]; Rate 0.0320 kg/ha): 4.0
herbicidal effect rating, CYPIR ([10]; Rate 0.0620 kg/ha): 7.0
herbicidal effect rating, CYPIR ([10]; Rate 0.1250 kg/ha): 9.0
herbicidal effect rating, CYPIR ([10]; Rate 0.2500 kg/ha): 9.0
herbicidal effect rating, CYPSE ([11]; Rate 0.0320 kg/ha): 0.0
herbicidal effect rating, CYPSE ([11]; Rate 0.0620 kg/ha): 2.0
herbicidal effect rating, CYPSE ([11]; Rate 0.1250 kg/ha): 4.0
herbicidal effect rating, CYPSE ([11]; Rate 0.2500 kg/ha): 4.0
herbicidal effect rating, MOOVA ([12]; Rate 0.0320 kg/ha): 0.0
herbicidal effect rating, MOOVA ([12]; Rate 0.0620 kg/ha): 0.0
herbicidal effect rating, MOOVA ([12]; Rate 0.1250 kg/ha): 2.0
herbicidal effect rating, MOOVA ([12]; Rate 0.2500 kg/ha): 9.0

COc1ccc(I)cc1-c1nsc2ccc(-n3c(=O)cc(C(F)(F)F)n(C)c3=O)cc12 [Example 448, 2,4(1H,3H)-Pyrimidinedione, 3-[3-(5-iodo-2-methoxyphenyl)-1,2-benzisothiazol-5-yl]-1-methyl-6-(trifluoromethyl)-]
MOOVA ([1]; 0.0320 kg/ha): 9.0
MOOVA ([1]; 0.0620 kg/ha): 9.0
MOOVA ([1]; 0.1250 kg/ha): 9.0
MOOVA ([1]; 0.2500 kg/ha): 9.0
herbicidal effect rating, ORYSAT (rice tolerance) ([2]; Rate 0.0620 kg/ha): 0.0
herbicidal effect rating, ORYSAT (rice tolerance) ([2]; Rate 0.1250 kg/ha): 1.0
herbicidal effect rating, ORYSAT (rice tolerance) ([2]; Rate 0.2500 kg/ha): 2.0
SAGPY ([3]; 0.0320 kg/ha): 0.0
SAGPY ([3]; 0.0620 kg/ha): 1.5
SAGPY ([3]; 0.1250 kg/ha): 2.5
SAGPY ([3]; 0.2500 kg/ha): 3.5
ECHORC ([4]; 0.0320 kg/ha): 9.0
ECHORC ([4]; 0.0620 kg/ha): 9.0
ECHORC ([4]; 0.1250 kg/ha): 9.0
ECHORC ([4]; 0.2500 kg/ha): 9.0
ORYSAT ([5]; 0.0320 kg/ha): 3.5
ORYSAT ([5]; 0.0620 kg/ha): 4.0
ORYSAT ([5]; 0.1250 kg/ha): 4.0
ORYSAT ([5]; 0.2500 kg/ha): 4.0
herbicidal effect rating, SAGPY ([6]; Rate 0.0620 kg/ha): 0.0
herbicidal effect rating, SAGPY ([6]; Rate 0.1250 kg/ha): 0.0
herbicidal effect rating, SAGPY ([6]; Rate 0.2500 kg/ha): 0.0
CYPSE ([7]; 0.0320 kg/ha): 4.5
CYPSE ([7]; 0.0620 kg/ha): 4.5
CYPSE ([7]; 0.1250 kg/ha): 4.5
CYPSE ([7]; 0.2500 kg/ha): 6.5
CYPIR ([8]; 0.0320 kg/ha): 8.5
CYPIR ([8]; 0.0620 kg/ha): 9.0
CYPIR ([8]; 0.1250 kg/ha): 9.0
CYPIR ([8]; 0.2500 kg/ha): 9.0
herbicidal effect rating, ECHORC ([9]; Rate 0.0620 kg/ha): 0.0
herbicidal effect rating, ECHORC ([9]; Rate 0.1250 kg/ha): 1.0
herbicidal effect rating, ECHORC ([9]; Rate 0.2500 kg/ha): 2.0
herbicidal effect rating, CYPIR ([10]; Rate 0.1250 kg/ha): 7.0
herbicidal effect rating, CYPIR ([10]; Rate 0.2500 kg/ha): 9.0
herbicidal effect rating, CYPSE ([11]; Rate 0.0620 kg/ha): 0.0
herbicidal effect rating, CYPSE ([11]; Rate 0.1250 kg/ha): 0.0
herbicidal effect rating, CYPSE ([11]; Rate 0.2500 kg/ha): 0.0
herbicidal effect rating, MOOVA ([12]; Rate 0.0620 kg/ha): 0.0
herbicidal effect rating, MOOVA ([12]; Rate 0.1250 kg/ha): 1.0
herbicidal effect rating, MOOVA ([12]; Rate 0.2500 kg/ha): 4.0
